Non-standard residues stand in square brackets, D forms with d. Primed or numbered codes have the meaning given here. No end group written: not given here. Orn(N3)′ = its azide, alkyne or alkene has reacted where a group follows in round brackets; Orn(N3) = [N-]=[N+]=NCCC[C@H](N)C(=O)O; tri‑GalNAc‑DBCO = not defined here
What was measured:
[1] = target: integrins that bind to PIP (total surface level on HEPG2 cells); assay: cell-based or functional assay
[2] = target: αvβ3 integrin on HEPG2 cells (UniProt P06756); assay: cell-based or functional assay
[3] = test system: cation independent M6PR (CIM6PR); details: compared to mannose-6-phosphate glycans; cited from earlier work
[4] = compared to mannose-6-phosphate glycans; cited from earlier work
[5] = test system: tumor-associated integrins; details: αvβ3, αvβ5, αvβ6 and α5β1 integrins; cited from earlier work
[6] = target: T1, integrin αvβ5 (Homo sapiens, UniProt P06756+P18084); assay: Cell surface integrin levels by live-cell flow cytometry in HEPG2 cells, anti-αvβ5 detection; format: cell-based; details: 44 h, 100 nM
T1 construct: endogenous in cells; host or cells: HEPG2
Method: (§1) FIG. 13 Panel A: Synthesis of PIP—GaINAc. Tri-GaINAc-DBCO was conjugated to PIP, a knottin peptide that binds to multiple integrins. Panel B: Degradation of cell surface integrins in HEPG2 cells as determined by live-cell flow cytometry following 44 h of treatment with 100 nM PIP or PIP—GaINAc. Anti-αvβ3, anti-αvβ5 and PIP-Fc fusion construct were used for detection. PIP was genetically fused to the Fc domain of a mouse IgG2a to generate a PIP-Fc fusion construct that measures the surface expression of integrins recognized by PIP. Panel C: Percent proliferation of HEPG2 cells following 44 h of treatment with 50 nM, 100 nM or 200 nM PIP or PIP—GaINAc. Proliferation was quantified by phase confluence over time using IncuCyte. Panel D: Time course of percent proliferation of HEPG2 cells during 44 h of treatment with 200 nM PIP or PIP—GaINAc. Panel E: Percent proliferation of HEPG2 cells for 6 d following wash-out. Cells were treated with 200 nM PIP or PIP—GaINAc on day 0. PIP+ and PIP—GaINAc+ indicate the conditions where cells were washed on day 4 and replaced with fresh medium without treatment. […] P values were determined by unpaired two-tailed t-tests.
(§2) The surface levels of integrins were measured by flow cytometry following treatment in HEPG2 cells. […] Nonetheless, the total surface level of integrins that bind to PIP was determined by utilizing a PIP-Fc fusion for staining of the Fc fragment. […]

[7] = test system: HEPG2 cells; assay: Antiproliferation assay (IncuCyte phase confluence); format: cell-based; details: for cell morphology: 100 nM, live imaging over 5 days following treatment; for antiproliferative phenotype after wash-out: 200 nM on day 0, washed on day 4, followed 6 d
Method: FIG. 13 Panel A: Synthesis of PIP—GaINAc. Tri-GaINAc-DBCO was conjugated to PIP, a knottin peptide that binds to multiple integrins. Panel B: Degradation of cell surface integrins in HEPG2 cells as determined by live-cell flow cytometry following 44 h of treatment with 100 nM PIP or PIP—GaINAc. Anti-αvβ3, anti-αvβ5 and PIP-Fc fusion construct were used for detection. PIP was genetically fused to the Fc domain of a mouse IgG2a to generate a PIP-Fc fusion construct that measures the surface expression of integrins recognized by PIP. Panel C: Percent proliferation of HEPG2 cells following 44 h of treatment with 50 nM, 100 nM or 200 nM PIP or PIP—GaINAc. Proliferation was quantified by phase confluence over time using IncuCyte. Panel D: Time course of percent proliferation of HEPG2 cells during 44 h of treatment with 200 nM PIP or PIP—GaINAc. Panel E: Percent proliferation of HEPG2 cells for 6 d following wash-out. Cells were treated with 200 nM PIP or PIP—GaINAc on day 0. PIP+ and PIP—GaINAc+ indicate the conditions where cells were washed on day 4 and replaced with fresh medium without treatment. PIP++ and PIP—GaINAc++ indicate the conditions where cells were washed on day 4 and replaced with fresh medium containing 200 nM PIP or PIP—GaINAc. Panel F: Live HEPG2 imaging by IncuCyte throughout the 5 d after treatment with 100 nM PIP or PIP—GaINAc. Images are representative of three independent experiments for F. Data in B-E represent three independent experiments, where B and C show the mean of three independent experiments ±s.e.m. P values were determined by unpaired two-tailed t-tests.
HEPG2 cells (100,000 cells per well in a 24-well plate) were treated with various concentrations of PIP or PIP—GaINAc. After treatments were added, cells were imaged every 4 h for the indicated times in the IncuCyte S3 Live-Cell Analysis system using the phase-imaging channel and a ×10 objective. For co-incubation experiments with ASF, 10 mg ml^−1 of ASF (Sigma-Aldrich) was treated with either PIP or PIP—GaINAc. The following analysis parameters were used to quantify phase confluence (%) in the Incucyte software: segmentation adjustment was set to 1, hole fill (μm2) was set to 300 and area minimum (μm^2) was set to 150. No other constraints were selected. Percent proliferation was then calculated by normalizing phase confluence values. Specifically, at any given timepoint n in the treatment time course (t=0→t=n), the change in confluence from t=0 to t=n (Δconfluence t=n) was calculated for each well as follows: Δconfluence t=n of well x=(confluence t=n of well x)−(confluence t=0 of well x), where x represents any given well in the experiment. This ensures that the value of each well is set to 0 at t=0. The average Δconfluence at the final time point of the untreated wells was set as the ‘max value’ (equivalent to 100% proliferation). Finally, data were normalized as follows:
% proliferationt=n=n of well x=(Δconfluencet=n of well x)/(max value),
where it is noted that while the metric is labeled as “% proliferation”, the effects quantitated are the summation of both cell proliferation and cell survival.

[8] = test system: integrins that bind to PIP; assay: Total surface level of integrins that bind to PIP, PIP-Fc fusion detection, HEPG2 cells; format: cell-based; details: 44 h, 100 nM, flow cytometry
Method: as §1, §2

[9] = target: T2, αvβ3 integrin (Homo sapiens, UniProt P05106+P06756); assay: Cell surface integrin levels by live-cell flow cytometry in HEPG2 cells, anti-αvβ3 detection; format: cell-based; details: 44 h, 100 nM
T2 construct: endogenous in cells; host or cells: HEPG2
Method: as §1, §2

T1 sequence (P06756 31-889 limits assumed): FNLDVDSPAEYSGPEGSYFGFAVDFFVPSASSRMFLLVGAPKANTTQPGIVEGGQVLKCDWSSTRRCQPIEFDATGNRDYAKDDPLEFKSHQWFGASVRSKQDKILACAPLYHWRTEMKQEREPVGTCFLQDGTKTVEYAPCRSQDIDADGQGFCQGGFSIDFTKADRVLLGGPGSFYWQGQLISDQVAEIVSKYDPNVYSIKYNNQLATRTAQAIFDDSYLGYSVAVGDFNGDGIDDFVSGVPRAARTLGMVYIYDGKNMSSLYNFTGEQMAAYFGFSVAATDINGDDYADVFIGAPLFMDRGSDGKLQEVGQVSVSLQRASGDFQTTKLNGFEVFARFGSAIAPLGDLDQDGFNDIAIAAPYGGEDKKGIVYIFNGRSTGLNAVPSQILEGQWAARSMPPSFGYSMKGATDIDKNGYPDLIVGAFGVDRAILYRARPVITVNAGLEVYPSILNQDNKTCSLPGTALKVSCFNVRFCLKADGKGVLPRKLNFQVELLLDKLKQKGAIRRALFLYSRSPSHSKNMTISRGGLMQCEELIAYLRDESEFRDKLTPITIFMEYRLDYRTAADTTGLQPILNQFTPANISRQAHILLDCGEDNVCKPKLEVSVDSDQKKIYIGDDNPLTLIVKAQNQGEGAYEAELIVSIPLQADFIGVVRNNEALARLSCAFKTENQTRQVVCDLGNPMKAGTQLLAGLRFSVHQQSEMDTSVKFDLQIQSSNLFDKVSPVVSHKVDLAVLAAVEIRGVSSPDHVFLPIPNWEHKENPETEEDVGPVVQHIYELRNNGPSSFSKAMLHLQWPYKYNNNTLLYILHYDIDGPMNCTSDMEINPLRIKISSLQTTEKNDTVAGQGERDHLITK
T1 sequence (P06756 891-1048 partner limits assumed): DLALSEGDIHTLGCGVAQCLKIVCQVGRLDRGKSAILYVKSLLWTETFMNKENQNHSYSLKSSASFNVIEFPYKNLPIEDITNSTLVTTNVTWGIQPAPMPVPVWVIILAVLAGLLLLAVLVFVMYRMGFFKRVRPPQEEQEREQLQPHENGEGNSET
T1 sequence (P18084 24-799): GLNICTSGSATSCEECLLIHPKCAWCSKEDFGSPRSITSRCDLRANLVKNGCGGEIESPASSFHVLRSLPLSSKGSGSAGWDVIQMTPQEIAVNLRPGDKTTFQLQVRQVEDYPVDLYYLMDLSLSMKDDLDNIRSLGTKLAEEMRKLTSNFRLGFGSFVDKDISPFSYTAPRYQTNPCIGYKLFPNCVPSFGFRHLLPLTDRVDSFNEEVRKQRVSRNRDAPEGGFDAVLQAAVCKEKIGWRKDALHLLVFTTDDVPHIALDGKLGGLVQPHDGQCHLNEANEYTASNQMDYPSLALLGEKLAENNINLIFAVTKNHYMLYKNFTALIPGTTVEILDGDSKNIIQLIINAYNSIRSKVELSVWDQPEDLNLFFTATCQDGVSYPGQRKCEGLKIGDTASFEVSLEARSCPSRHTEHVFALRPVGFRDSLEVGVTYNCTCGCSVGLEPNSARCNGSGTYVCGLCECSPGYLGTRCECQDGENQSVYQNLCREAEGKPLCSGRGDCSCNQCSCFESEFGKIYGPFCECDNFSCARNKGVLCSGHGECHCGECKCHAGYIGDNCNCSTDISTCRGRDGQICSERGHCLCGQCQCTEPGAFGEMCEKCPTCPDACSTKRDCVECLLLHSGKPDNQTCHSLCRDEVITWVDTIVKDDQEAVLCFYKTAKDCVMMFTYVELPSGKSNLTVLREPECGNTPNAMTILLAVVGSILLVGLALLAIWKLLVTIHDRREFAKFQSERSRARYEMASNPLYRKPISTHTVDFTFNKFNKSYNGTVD
Chain of αvβ3 integrin on HEPG2 cells (P06756 31-1048 limits assumed, chain 1 of 2): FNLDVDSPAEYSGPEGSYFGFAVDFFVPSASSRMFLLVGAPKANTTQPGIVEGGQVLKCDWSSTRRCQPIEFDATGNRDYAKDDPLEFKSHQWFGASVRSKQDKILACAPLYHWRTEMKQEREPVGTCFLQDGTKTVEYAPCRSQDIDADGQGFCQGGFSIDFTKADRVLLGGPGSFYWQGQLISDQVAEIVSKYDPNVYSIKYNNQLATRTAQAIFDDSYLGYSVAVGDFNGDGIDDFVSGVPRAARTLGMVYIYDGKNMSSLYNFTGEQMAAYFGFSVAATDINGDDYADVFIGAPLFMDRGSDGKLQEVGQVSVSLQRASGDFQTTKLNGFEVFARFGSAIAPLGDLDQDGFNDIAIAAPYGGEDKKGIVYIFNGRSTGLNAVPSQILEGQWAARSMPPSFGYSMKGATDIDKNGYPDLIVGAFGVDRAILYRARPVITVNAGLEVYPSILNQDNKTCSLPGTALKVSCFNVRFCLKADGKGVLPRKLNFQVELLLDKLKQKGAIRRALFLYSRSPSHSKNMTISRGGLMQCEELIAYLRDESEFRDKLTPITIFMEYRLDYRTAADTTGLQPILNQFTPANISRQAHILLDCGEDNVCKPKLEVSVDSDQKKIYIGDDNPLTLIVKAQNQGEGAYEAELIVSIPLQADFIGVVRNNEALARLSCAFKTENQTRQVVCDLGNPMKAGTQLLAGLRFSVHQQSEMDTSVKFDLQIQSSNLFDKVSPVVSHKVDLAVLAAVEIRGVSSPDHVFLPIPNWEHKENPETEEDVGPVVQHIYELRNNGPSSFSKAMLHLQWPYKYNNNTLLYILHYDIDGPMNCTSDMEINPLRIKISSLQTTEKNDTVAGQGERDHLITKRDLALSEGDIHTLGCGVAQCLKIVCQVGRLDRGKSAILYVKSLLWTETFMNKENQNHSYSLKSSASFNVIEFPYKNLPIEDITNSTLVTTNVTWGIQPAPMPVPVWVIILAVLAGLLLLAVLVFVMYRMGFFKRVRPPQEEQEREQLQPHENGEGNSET
Chain of αvβ3 integrin on HEPG2 cells (P05106 27-788 limits assumed, chain 2 of 2, further chain): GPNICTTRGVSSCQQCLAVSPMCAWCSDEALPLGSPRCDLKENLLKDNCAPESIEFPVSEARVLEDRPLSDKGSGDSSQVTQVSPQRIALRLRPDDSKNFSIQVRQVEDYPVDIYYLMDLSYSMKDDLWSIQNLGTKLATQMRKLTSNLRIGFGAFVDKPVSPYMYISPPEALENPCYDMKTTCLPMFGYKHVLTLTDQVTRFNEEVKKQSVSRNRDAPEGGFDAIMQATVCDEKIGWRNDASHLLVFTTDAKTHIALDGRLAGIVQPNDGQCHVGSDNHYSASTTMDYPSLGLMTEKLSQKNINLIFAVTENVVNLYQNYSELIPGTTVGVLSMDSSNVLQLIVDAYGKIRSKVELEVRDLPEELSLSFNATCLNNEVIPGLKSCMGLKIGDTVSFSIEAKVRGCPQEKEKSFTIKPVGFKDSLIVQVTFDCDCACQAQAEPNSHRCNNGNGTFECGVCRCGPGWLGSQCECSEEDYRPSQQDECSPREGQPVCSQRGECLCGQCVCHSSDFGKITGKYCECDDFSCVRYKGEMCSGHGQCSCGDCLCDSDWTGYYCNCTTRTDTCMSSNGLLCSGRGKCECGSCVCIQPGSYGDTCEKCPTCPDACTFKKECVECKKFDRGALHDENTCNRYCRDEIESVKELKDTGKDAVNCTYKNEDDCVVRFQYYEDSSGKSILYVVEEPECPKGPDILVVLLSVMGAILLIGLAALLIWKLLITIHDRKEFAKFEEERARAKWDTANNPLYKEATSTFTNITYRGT
T2 sequence (P06756 31-889 limits assumed): as the sequence (P06756 31-889 limits assumed) above
T2 sequence (P06756 891-1048 partner limits assumed): as the sequence (P06756 891-1048 partner limits assumed) above
T2 sequence (P05106 27-788): as the sequence (P05106 27-788 limits assumed, chain 2 of 2, further chain) above

| Compound | depletion of total surface integrins that bind to PIP on HEPG2 cells, detected by PIP-Fc staining (flow cytometry) [1] [%] | relative binding affinity for the CIM6PR [3] | effect on surface expression of integrin αvβ5 [6] | cell morphology [7] | antiproliferative phenotype after wash-out [7] | integrins depleted (detection of PIP-Fc) [8] | other results |
| --- | --- | --- | --- | --- | --- | --- | --- |
| polyspecific integrin-binding knottin peptide (PIP), synthesized with 5-azido-L-norvaline at position 15 and tyrosine at position 31 | 40 |  |  |  |  |  |  |
| PIP-GalNAc (PIP conjugated to a single tri-GalNAc-DBCO moiety) (peptide) | 60 |  |  |  |  |  | cell surface αvβ3 integrin level on HEPG2 cells, live-cell flow cytometry after 44 h of treatment with 100 nM [2]: 3 fold |
| C=CC(=O)OC[C@@H](O)[C@@H](O)[C@H](O)[C@H](O)C=O [mannose-6-acrylate glycans, mannose-6-acrylate] |  | 0.7 |  |  |  |  | serum stability [4]: better serum stability |
| PIP: polyspecific integrin-binding knottin peptide, 33-mer (SEQ ID NO:42); 5-azido-L-norvaline at position 15, tyrosine at position 31 (GCPRPRGDNPPLTC[Orn(N3)]QDSDCLAGCVCGPNGYCG; disulfide (positions not given here); not fully specified (bridges); also: further groups not given here) |  |  | increased the expression | epithelial-like clusters | wash-out rescued proliferation | 40% | binding affinity to tumor-associated integrins [5]: high affinity |
| mannose-6-carboxylate [mannose-6-carboxylate glycans] |  | 0.3 |  |  |  |  |  |
| PIP—GaINAc: PIP knottin with azido-norvaline site-specifically conjugated via a single tri-GaINAc-DBCO moiety (GCPRPRGDNPPLTC[Orn(N3)′](tri‑GalNAc‑DBCO)QDSDCLAGCVCGPNGYCG; disulfide (positions not given here); not fully specified (bridges); reading uncertain; also: further groups not given here) |  |  | modest degradation | formed smaller, circular clusters | persisted after conjugate wash-out | about 60% | depletion of cell surface αvβ3 integrin levels relative to PIP treatment alone [9]: threefold; antiproliferative effect on co-incubation with asialofetuin (ASF), inhibitor of ASGPR ([7]; 10 mg ml^−1 ASF): ablated the enhanced antiproliferative effect; inhibition of proliferation ([7]; various concentrations (50, 100, 200 nM) and durations of treatment up to 44 h): substantially more effective at inhibiting proliferation than PIP |

Reference: patent publication US20230211001A1, “Lysosomal Targeting Molecules Comprising Knottin Peptides And Related Compositions And Methods” (The Board of Trustees of the Leland Stanford Junior …, priority 2020, published 2023)
